Experiment [1] relates to Orthotopic glioblastoma tumors, nude (U87) mouse model. The experiment in a line: Survival of nude mice with orthotopic U87 glioblastoma tumors, sepiapterin plus radiation. It counts as in vivo. As for the experimental part:
Orthotopic glioblastoma tumors were established in nude (U87) and syngeneic (GL261) mouse models on Day 0 (N=13/group). Starting on Day 6 in the U87 mouse model, sepiapterin (SP) was orally administered for either 6 days (10 mg/kg sepiapterin) or daily (1 mg/kg sepiapterin) until end of experiment (60 days). Starting on Day 6 in the GL261 mouse model, SP was orally administered daily (10 mg/kg) until the end of experiment (60 days). Radiation (IR) (5 fxs of 2 Gy) with 3D treatment planning and delivery was started on Day 13, ending on Day 17.

Another experiment concerns Orthotopic GL261 tumors. The experiment can be described thus: Survival of mice with orthotopic GL261 tumors, temozolomide with or without sepiapterin. It counts as in vivo, mouse. The settings on record: 10 mg/kg SP orally from day 7 until end of study + 60 mg/kg TMZ for 5 days. As for the experimental part:
Orthotopic GL261 tumors were established on Day 0. Starting on Day 7 mice were treated with 60 mg/kg temozolomide (TMZ) for 5 days+/−10 mg/kg SP given orally from day 7 until the end of the study. […] Future animal studies will combine with fractionated radiotherapy.

In experiment [2] the test system is adult female C57BL/6J mice. The experiment can be described thus: Novel object recognition (NOR) test after brain irradiation. It counts as in vivo, mouse. The text has this: The novel object recognition test is a behavioral test in which a mouse is allowed to explore two similar objects during the first (training) session, and then after a certain length of time, one of the two training objects is replaced by a new object during a later (test) session. Because mice have an innate preference for novelty, if the mouse recognizes the familiar object, it will spend most of its time at the novel object. The amount of time taken to explore the new object provides a measure of recognition memory. 24 adult female C57BL/6J mice were treated as follows: (1) 8 mice were irradiated (IR) with 10 Gy total dose, divided into three fractions with a “rest” day in between fractions, covering about a 1 mm square over the center of the head; (2) 8 mice were similarly irradiated, and also treated with 10 mg/kg/day sepiapterin (SP), administered as oral gavage, starting on day 1 of IR to 6 days beyond last radiation fraction (i.e. 11 days total); (3) 8 mice were untreated naïve. 1 month following treatment, mice were tested in the novel object recognition (NOR) task with an hour inter-trial interval (ITI) to assess hippocampal mediated memory (i.e. the test occurred one hour after training). In both training and test phases, time investigating objects was measured for 5 minutes. Two independent observers were used to evaluate. The Discrimination Index=(novel−familiar)/(novel+familiar).

Each structure is given as a SMILES string.

In the case of `C[C@H](O)C(=O)C1=Nc2c(nc(N)[nH]c2=O)NC1` [sepiapterin, (S)-2-amino-6-(2-hydroxypropanoyl)-7,8-dihydropteridin-4(3H)-one], the “Survival vs control group” value was “significantly different” in experiment [1] (1 mg/kg oral continuously (daily from Day 6 to day 60) + IR, vs control) and “significantly different” in experiment [1] (10 mg/kg oral for 6d from Day 6 + IR (5 fxs of 2 Gy, Day 13-17), vs control (no IR or SP)). The “Survival vs all other groups (Control, IR alone, and 10 mg/kg for 6d)” value in experiment [1] (1 mg/kg oral continuously + IR) is “significantly different from all other groups”. Moreover, the “Survival vs IR alone group” value in experiment [1] (10 mg/kg oral for 6d from Day 6 + IR, vs IR alone) is recorded as “did not achieve statistical significance”. The “Survival vs TMZ alone” value in the experiment with Orthotopic GL261 tumors is “improved survival”. The “Discrimination Index compared with irradiated-only group” value in experiment [2] (10 Gy IR in three fractions + 10 mg/kg/day oral gavage for 11 days, NOR 1 month after treatment, 1 h ITI) is given as “increased”. Besides, the “NOR Discrimination Index, Mean” value in experiment [2] (IR 10 Gy + 10 mg/kg/day sepiapterin, N=8, 1 month after treatment, (novel−familiar)/(novel+familiar)) came to 0.262. The “Diff of Means of Discrimination Index, IR + drug vs. IR” value in experiment [2] (Tukey test, P 0.331, P < 0.050: No) is reported as 0.135. In addition, the “Diff of Means of Discrimination Index, Naïve vs. IR + drug” value in experiment [2] (Tukey test, P 0.475, P < 0.050: No) worked out at 0.110.

These data come from patent US20240115572A1, “METHODS FOR TREATING GLIOBLASTOMAS WITH SEPIAPTERIN” (priority 2021, published 2024).
